Reference: US11807835B2, “Detergent compositions containing a stabilized enzyme by phosphonates” (ECOLAB USA INC., priority 2016, dated 2023)

Tested on: lipase
Test: Lipase activity retention in detergent use solution (4000 ppm, 5 GPG water; p-nitrophenyl valerate, TRIS buffer pH 8.0)
Format: biochemical
Conditions: for Relative Lipase Enzyme Activity in a Use Solution: Table 6E, room temperature; for Relative Lipase Enzyme Activity in a Use Solution of the All Ash Detergent Composition: Table 6F, all ash formula, 120º F.; for Relative Lipase Enzyme Activity: base formula
How it was run: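 Lipase stability was measured in a detergent use solution under conditions mimicking presoak or manual warewash, with stirring in a water bath. Aliquots were taken over time and flash-frozen. Thawed samples were diluted in TRIS buffer at pH 8.0 and assayed with p-nitrophenyl valerate as substrate on a plate reader. Activity is reported as % retained relative to the time=0 sample.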

[1] = phosphonate 0.3 wt-%, time 0 min
[2] = phosphonate 0.3 wt-%, time 5 min
[3] = phosphonate 0.3 wt-%, time 10 min
[4] = phosphonate 0.3 wt-%, time 20 min
[5] = phosphonate 0.3 wt-%, time 40 min
[6] = phosphonate 0.3 wt-%, time 60 min
[7] = phosphonate 0.3 wt-%, time 90 min
[8] = phosphonate 0.3 wt-%, time 120 min
[9] = phosphonate 0.3 wt-%, time 150 min
[10] = phosphonate 0.3 wt-%, time 180 min
[11] = phosphonate 0.3 wt-%, time 210 min
[12] = phosphonate 0.3 wt-%, time 240 min

O=C(O)CCC(CC(=O)O)(C(=O)O)P(=O)(O)O (stereo not drawn) [PBTC, Phosphonebutane tricarboxylic acid]
Relative Lipase Enzyme Activity in a Use Solution [1]: 100.00%
Relative Lipase Enzyme Activity in a Use Solution [2]: 84.82%
Relative Lipase Enzyme Activity in a Use Solution [3]: 101.70%
Relative Lipase Enzyme Activity in a Use Solution [4]: 98.72%
Relative Lipase Enzyme Activity in a Use Solution [5]: 109.31%
Relative Lipase Enzyme Activity in a Use Solution [6]: 103.07%
Relative Lipase Enzyme Activity in a Use Solution [7]: 104.82%
Relative Lipase Enzyme Activity in a Use Solution [8]: 102.36%
Relative Lipase Enzyme Activity in a Use Solution [9]: 105.67%
Relative Lipase Enzyme Activity in a Use Solution [10]: 81.94%
Relative Lipase Enzyme Activity in a Use Solution [11]: 101.51%
Relative Lipase Enzyme Activity in a Use Solution [12]: 110.35%
Relative Lipase Enzyme Activity in a Use Solution of the All Ash Detergent Composition [1]: 100.00%
Relative Lipase Enzyme Activity in a Use Solution of the All Ash Detergent Composition [2]: 44.27%
Relative Lipase Enzyme Activity in a Use Solution of the All Ash Detergent Composition [3]: 26.34%
Relative Lipase Enzyme Activity in a Use Solution of the All Ash Detergent Composition [4]: 13.39%
Relative Lipase Enzyme Activity in a Use Solution of the All Ash Detergent Composition [5]: 3.62%
Relative Lipase Enzyme Activity in a Use Solution of the All Ash Detergent Composition [6]: 1.82%
Relative Lipase Enzyme Activity in a Use Solution of the All Ash Detergent Composition [7]: 0.36%
Relative Lipase Enzyme Activity in a Use Solution of the All Ash Detergent Composition [8]: 0.52%
Relative Lipase Enzyme Activity in a Use Solution of the All Ash Detergent Composition [9]: 2.28%
Relative Lipase Enzyme Activity in a Use Solution of the All Ash Detergent Composition [10]: 2.33%
Relative Lipase Enzyme Activity in a Use Solution of the All Ash Detergent Composition [11]: 3.25%
Relative Lipase Enzyme Activity in a Use Solution of the All Ash Detergent Composition [12]: 3.58%
Relative Lipase Enzyme Activity (phosphonate 0.3 wt-%, use solution at 120° F., time 0 min): 100.00%
Relative Lipase Enzyme Activity (phosphonate 0.3 wt-%, use solution at 120° F., time 5 min): 73.63%
Relative Lipase Enzyme Activity (phosphonate 0.3 wt-%, use solution at 120° F., time 10 min): 66.55%
Relative Lipase Enzyme Activity (phosphonate 0.3 wt-%, use solution at 120° F., time 20 min): 48.22%
Relative Lipase Enzyme Activity (phosphonate 0.3 wt-%, use solution at 120° F., time 40 min): 26.23%
Relative Lipase Enzyme Activity (phosphonate 0.3 wt-%, use solution at 120° F., time 60 min): 15.51%
Relative Lipase Enzyme Activity (phosphonate 0.3 wt-%, use solution at 120° F., time 90 min): 7.72%
Relative Lipase Enzyme Activity (phosphonate 0.3 wt-%, use solution at 120° F., time 120 min): 3.90%
Relative Lipase Enzyme Activity (phosphonate 0.3 wt-%, use solution at 120° F., time 150 min): 2.70%
Relative Lipase Enzyme Activity (phosphonate 0.3 wt-%, use solution at 120° F., time 180 min): −0.75%
Relative Lipase Enzyme Activity (phosphonate 0.3 wt-%, use solution at 120° F., time 210 min): −1.86%
Relative Lipase Enzyme Activity (phosphonate 0.3 wt-%, use solution at 120° F., time 240 min): −2.20%
Relative Lipase Enzyme Activity (phosphonate 0.6 wt-%, use solution at 120º F., time 0 min): 100.00%
Relative Lipase Enzyme Activity (phosphonate 0.6 wt-%, use solution at 120º F., time 5 min): 61.52%
Relative Lipase Enzyme Activity (phosphonate 0.6 wt-%, use solution at 120º F., time 10 min): 62.20%
Relative Lipase Enzyme Activity (phosphonate 0.6 wt-%, use solution at 120º F., time 20 min): 44.99%
Relative Lipase Enzyme Activity (phosphonate 0.6 wt-%, use solution at 120º F., time 40 min): 31.89%
Relative Lipase Enzyme Activity (phosphonate 0.6 wt-%, use solution at 120º F., time 60 min): 23.30%
Relative Lipase Enzyme Activity (phosphonate 0.6 wt-%, use solution at 120º F., time 90 min): 16.36%
Relative Lipase Enzyme Activity (phosphonate 0.6 wt-%, use solution at 120º F., time 120 min): 12.11%
Relative Lipase Enzyme Activity (phosphonate 0.6 wt-%, use solution at 120º F., time 150 min): 9.68%
Relative Lipase Enzyme Activity (phosphonate 0.6 wt-%, use solution at 120º F., time 180 min): 6.06%
Relative Lipase Enzyme Activity (phosphonate 0.6 wt-%, use solution at 120º F., time 210 min): 6.80%
Relative Lipase Enzyme Activity (phosphonate 0.6 wt-%, use solution at 120º F., time 240 min): 5.96%
Relative Lipase Enzyme Activity (phosphonate at 0.1% elemental phosphorus, at 120º F. or at room temperature (as titled), time 0 min): 100.00%
Relative Lipase Enzyme Activity (phosphonate at 0.1% elemental phosphorus, at 120º F. or at room temperature (as titled), time 5 min): 87.75%
Relative Lipase Enzyme Activity (phosphonate at 0.1% elemental phosphorus, at 120º F. or at room temperature (as titled), time 10 min): 73.69%
Relative Lipase Enzyme Activity (phosphonate at 0.1% elemental phosphorus, at 120º F. or at room temperature (as titled), time 20 min): 56.53%
Relative Lipase Enzyme Activity (phosphonate at 0.1% elemental phosphorus, at 120º F. or at room temperature (as titled), time 40 min): 25.32%
Relative Lipase Enzyme Activity (phosphonate at 0.1% elemental phosphorus, at 120º F. or at room temperature (as titled), time 60 min): 19.97%
